This assay has as its system Plasmodium. The assay is described as follows: Antiplasmodial activity against Plasmodium. The assay is classed as functional, organism-based.

Where only a bound is given, the exact number is not on record here.

`FC(F)Oc1ccc(-c2nnc3cncc(OCc4cc5c(cc4Cl)OCO5)n23)cc1`: the IC50 (usually the concentration that gives 50% inhibition) was more than 25000 nM.
Regarding `FC(F)Oc1ccc(-c2nnc3cncc(OCc4cccc(Br)c4)n23)cc1`, the half-maximal inhibitory concentration (IC50) stood at 670 nM.
As for `FC(F)Oc1ccc(-c2nnc3cncc(OCCCC(F)(F)F)n23)cc1`, the figure is 410 nM; as for `FC(F)Oc1ccc(-c2nnc3cncc(OCc4csc(C(F)(F)F)c4)n23)cc1`, 2460 nM; as for `FC(F)Oc1ccc(-c2nnc3cncc(OCc4cc(OC(F)F)ccn4)n23)cc1`, 5040 nM.
`FC(F)Oc1ccc(-c2nnc3cncc(OCCc4ccccc4)n23)cc1` came in with an IC50 of 170 nM.
For `FC(F)Oc1ccc(-c2nnc3cncc(OCc4cccc(C(F)(F)F)c4)n23)cc1`, the IC50 was 390 nM.
The compound `COC(COc1cncc2nnc(-c3ccc(OC(F)F)cc3)n12)c1ccc(OC(F)F)cc1` (stereo not drawn) returned an IC50 of 77 nM.
`COC(COc1cncc2nnc(-c3ccc(OC(F)F)cc3)n12)c1ccccc1` (stereo not drawn) displayed an IC50 of 110 nM.
Next, `Fc1cccc(OCCOc2cncc3nnc(-c4ccc(OC(F)F)cc4)n23)c1`: 1350 nM; `FC(F)Oc1ccc(-c2nnc3cncc(OCc4ccc(C(F)(F)F)cc4)n23)cc1`: 5270 nM; `FC(F)Oc1ccc(-c2nnc3cncc(OCc4ccccc4)n23)cc1`: 1120 nM.
As for `O=[N+]([O-])c1cccc(CCOc2cncc3nnc(-c4ccc(OC(F)F)cc4)n23)c1`, the IC50 turned out to be 250 nM.
As for `Fc1cccc(F)c1COc1cncc2nnc(-c3ccc(OC(F)F)cc3)n12`, the figure is 4080 nM; as for `FC(F)Oc1ccc(-c2nnc3cncc(OCc4ccccc4C(F)(F)F)n23)cc1`, 890 nM.
Next, `FC(F)Oc1ccc(-c2nnc3cncc(OCc4ccc5c(c4)OCO5)n23)cc1`: more than 10000 nM.
As for `Fc1cc2c(cc1F)C(COc1cncc3nnc(-c4ccc(OC(F)F)cc4)n13)C2` (stereo not drawn), the figure is 480 nM.
In the case of `FC(F)Oc1ccc(-c2nnc3cncc(OCc4cnccc4C(F)(F)F)n23)cc1`, it took 5900 nM to reach half-maximal inhibition (IC50).

Source of the values: ChEMBL document CHEMBL5614449, “Open Source Code Contributions to Global Health: The Case of Antimalarial Drug Discovery” (ACS Med Chem Lett, 2024).
